According to patent US20240239775A1, “FXR REGULATOR, PREPARATION METHOD THEREFOR, PHARMACEUTICAL COMPOSITION THEREOF AND USE THEREOF” (QINGDAO RUIJI MEDICAL TECHNOLOGY CO., LTD., priority 2021, published 2024):

These molecules were tested against T1, FXR (Homo sapiens, UniProt Q96RI1) (assay: FXR antagonist screening by TR-FRET (LanthaScreen TR-FRET FXR co-activation assay kit)). Settings: Table 1.1, FXR antagonistic activity; TR-FRET with CDCA; geometric means of at least two independent runs.
T1 construct: 5 μL of 20 nM FXR-LBD Complete Coregulator buffer G; purchased ThermoFisher PV4833
T1 sequence (Q96RI1 262-486 limits assumed): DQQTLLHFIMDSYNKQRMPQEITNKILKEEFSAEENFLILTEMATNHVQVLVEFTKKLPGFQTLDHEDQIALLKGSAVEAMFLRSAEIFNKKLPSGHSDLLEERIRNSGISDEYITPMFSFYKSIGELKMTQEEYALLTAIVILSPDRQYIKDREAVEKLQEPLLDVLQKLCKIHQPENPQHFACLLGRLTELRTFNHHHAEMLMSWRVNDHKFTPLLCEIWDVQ
Type: biochemical
Summary of the method: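 FXR-LBD (20 nM working solution) mixed with compound, CDCA (200 μM working solution) as agonist, Fluorescein-SRC2-2 and Tb-anti-GST antibody in Coregulator buffer G; 10 h at room temperature. Coactivator recruitment read by TR-FRET, triplicate wells.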
Work on `CCOC(=O)c1oc2ccc(S(=O)(=O)N(CCc3ccccc3)Cc3ccc(C(C)(C)C)cc3)cc2c1C` [Example M4-37, ethyl 3-methyl-5-(N-(4-(tert-butyl)benzyl)-N-phenethylsulfamoyl)benzofuran-2-carboxylate] yielded an IC50 of 50 to 100 µM. Molecule `CCOC(=O)c1oc2ccc(S(=O)(=O)N(CCc3ccccc3)Cc3ccc(C(C)=O)cc3)cc2c1C` [Example M4-38, ethyl 3-methyl-5-(N-(4-acetylbenzyl)-N-phenethylsulfamoyl)benzofuran-2-carboxylate] has an IC50 of 50 to 100 µM. In the case of `CCOC(=O)c1oc2ccc(S(=O)(=O)N(CCc3ccccc3)Cc3ccc(C(=O)OC)cc3)cc2c1C` [Example M4-39, ethyl 3-methyl-5-(N-(4-(methoxycarbonyl)benzyl)-N-phenethylsulfamoyl)benzofuran-2-carboxylate], the IC50 is reported as 50 to 100 µM. With `CCOC(=O)c1oc2ccc(S(=O)(=O)N(CCc3ccccc3)Cc3ccc(C(=O)OC(C)(C)C)cc3)cc2c1C` [Example M4-40, ethyl 3-methyl-5-(N-(4-(tert-butoxycarbonyl)benzyl)-N-phenethylsulfamoyl)benzofuran-2-carboxylate] the IC50 was 50 to 100 µM. `CCOC(=O)c1oc2ccc(S(=O)(=O)N(CCc3ccccc3)Cc3ccc(CC(=O)OC)cc3)cc2c1C` [Example M4-41, ethyl 3-methyl-5-(N-(4-(2-methoxy-2-oxoethyl)benzyl)-N-phenethylsulfamoyl)benzofuran-2-carboxylate] was tested, and the IC50 was 50 to 100 µM. Molecule `CCOC(=O)c1oc2ccc(S(=O)(=O)N(CCc3ccccc3)Cc3ccc(/C=C/C(=O)OC)cc3)cc2c1C` [Example M4-42, (E)ethyl-3-methyl-5-(N-(4-(3-methoxy-3-oxoprop-1-en-1-yl)benzyl)-N-phenethylsulfamoyl)benzofuran-2-carboxylate] has an IC50 of 50 to 100 µM. `CCOC(=O)c1oc2ccc(S(=O)(=O)N(CCc3ccccc3)Cc3cccc4ccccc34)cc2c1C` [Example M4-43, ethyl 3-methyl-5-(N-(naphthalen-1-ylmethyl)-N-phenethylsulfamoyl)benzofuran-2-carboxylate] gave an IC50 of 50 to 100 µM. With `CCOC(=O)c1oc2ccc(S(=O)(=O)N(CCc3ccccc3)Cc3cccc4cccnc34)cc2c1C` [Example M4-44, ethyl 3-methyl-5-(N-(quinolin-8-ylmethyl)-N-phenethylsulfamoyl)benzofuran-2-carboxylate] the IC50 was 50 to 100 µM. `CCOC(=O)c1oc2ccc(S(=O)(=O)N(CCc3ccccc3)Cc3ccc4ccccc4c3)cc2c1C` [Example M4-45, ethyl 3-methyl-5-(N-(naphthalen-2-ylmethyl)-N-phenethylsulfamoyl)benzofuran-2-carboxylate] gave an IC50 of 50 to 100 µM. `CCOC(=O)c1oc2ccc(S(=O)(=O)N(CCc3ccccc3)Cc3c(F)cccc3F)cc2c1C` [Example M4-46, ethyl 3-methyl-5-(N-(2,6-difluorobenzyl)-N-phenethylsulfamoyl)benzofuran-2-carboxylate] gave an IC50 of 50 to 100 µM. Molecule `CCOC(=O)c1oc2ccc(S(=O)(=O)N(CCc3ccccc3)Cc3c(F)cccc3Cl)cc2c1C` [Example M4-47, ethyl 3-methyl-5-(N-(2-fluoro-6-chlorobenzyl)-N-phenethylsulfamoyl)benzofuran-2-carboxylate] has an IC50 of 50 to 100 µM. Work on `CCOC(=O)c1oc2ccc(S(=O)(=O)N(CCc3ccccc3)Cc3c(F)cccc3C(F)(F)F)cc2c1C` [Example M4-48, ethyl 3-methyl-5-(N-(2-fluoro-6-(trifluoromethyl)benzyl)-N-phenethylsulfamoyl)benzofuran-2-carboxylate] yielded an IC50 of 50 to 100 µM. In the case of `CCOC(=O)c1oc2ccc(S(=O)(=O)N(CCc3ccccc3)Cc3c(Cl)cccc3Cl)cc2c1C` [Example M4-49, ethyl 3-methyl-5-(N-(2,6-dichlorobenzyl)-N-phenethylsulfamoyl)benzofuran-2-carboxylate], the IC50 is reported as 50 to 100 µM. Work on `CCOC(=O)c1oc2ccc(S(=O)(=O)N(CCc3ccccc3)Cc3c(C)cccc3C)cc2c1C` [Example M4-50, ethyl 3-methyl-5-(N-(2,6-dimethylbenzyl)-N-phenethylsulfamoyl)benzofuran-2-carboxylate] yielded an IC50 of 50 to 100 µM. With `CCOC(=O)c1oc2ccc(S(=O)(=O)N(CCc3ccccc3)Cc3ccc(F)cc3F)cc2c1C` [Example M4-51, ethyl 3-methyl-5-(N-(2,4-difluorobenzyl)-N-phenethylsulfamoyl)benzofuran-2-carboxylate] the IC50 was 50 to 100 µM. Molecule `CCOC(=O)c1oc2ccc(S(=O)(=O)N(CCc3ccccc3)Cc3ccc(Cl)cc3F)cc2c1C` [Example M4-52, ethyl 3-methyl-5-(N-(2-fluoro-4-chlorobenzyl)-N-phenethylsulfamoyl)benzofuran-2-carboxylate] has an IC50 of 50 to 100 µM. For `CCOC(=O)c1oc2ccc(S(=O)(=O)N(CCc3ccccc3)Cc3ccc(Br)cc3F)cc2c1C` [Example M4-53, ethyl 3-methyl-5-(N-(2-fluoro-4-bromobenzyl)-N-phenethylsulfamoyl)benzofuran-2-carboxylate], the IC50 was 50 to 100 µM. Molecule `CCOC(=O)c1oc2ccc(S(=O)(=O)N(CCc3ccccc3)Cc3ccc(C#N)cc3F)cc2c1C` [Example M4-54, ethyl 3-methyl-5-(N-(2-fluoro-4-cyanobenzyl)-N-phenethylsulfamoyl)benzofuran-2-carboxylate] has an IC50 of 50 to 100 µM. Work on `CCOC(=O)c1oc2ccc(S(=O)(=O)N(CCc3ccccc3)Cc3ccc(C(F)(F)F)cc3F)cc2c1C` [Example M4-55, ethyl 3-methyl-5-(N-(2-fluoro-4-(trifluoromethyl)benzyl)-N-phenethylsulfamoyl)benzofuran-2-carboxylate] yielded an IC50 of 50 to 100 µM. In the case of `CCOC(=O)c1oc2ccc(S(=O)(=O)N(CCc3ccccc3)Cc3ccc(F)cc3Cl)cc2c1C` [Example M4-56, ethyl 3-methyl-5-(N-(2-chloro-4-fluorobenzyl)-N-phenethylsulfamoyl)benzofuran-2-carboxylate], the IC50 is reported as 50 to 100 µM. `CCOC(=O)c1oc2ccc(S(=O)(=O)N(CCc3ccccc3)Cc3ccc(F)cc3C(F)(F)F)cc2c1C` [Example M4-57, ethyl 3-methyl-5-(N-(2-(trifluoromethyl)-4-fluorobenzyl)-N-phenethylsulfamoyl)benzofuran-2-carboxylate] was tested, and the IC50 was 50 to 100 µM. `CCOC(=O)c1oc2ccc(S(=O)(=O)N(CCc3ccccc3)Cc3ccc(C(F)(F)F)cc3C(F)(F)F)cc2c1C` [Example M4-58, ethyl 3-methyl-5-(N-(2,4-bis(trifluoromethyl)benzyl)-N-phenethylsulfamoyl)benzofuran-2-carboxylate] gave an IC50 of 50 to 100 µM. Molecule `CCOC(=O)c1oc2ccc(S(=O)(=O)N(CCc3ccccc3)Cc3ccc(Br)cc3C(F)(F)F)cc2c1C` [Example M4-59, ethyl 3-methyl-5-(N-(2-trifluoromethyl-4-bromobenzyl)-N-phenethylsulfamoyl)benzofuran-2-carboxylate] has an IC50 of 50 to 100 µM. In the case of `CCOC(=O)c1oc2ccc(S(=O)(=O)N(CCc3ccccc3)Cc3ccc(Cl)cc3Cl)cc2c1C` [Example M4-60, ethyl 3-methyl-5-(N-(2,4-dichlorobenzyl)-N-phenethylsulfamoyl)benzofuran-2-carboxylate], the IC50 is reported as 50 to 100 µM. In the case of `CCOC(=O)c1oc2ccc(S(=O)(=O)N(CCc3ccccc3)Cc3cc(F)ccc3C)cc2c1C` [Example M4-61, ethyl 3-methyl-5-(N-(2-methyl-5-fluorobenzyl)-N-phenethylsulfamoyl)benzofuran-2-carboxylate], the IC50 is reported as 50 to 100 µM. `CCOC(=O)c1oc2ccc(S(=O)(=O)N(CCc3ccccc3)Cc3c(F)cc(Cl)cc3F)cc2c1C` [Example M4-62, ethyl 3-methyl-5-(N-(2,6-difluoro-4-chlorobenzyl)-N-phenethylsulfamoyl)benzofuran-2-carboxylate] was tested, and the IC50 was 50 to 100 µM.
